Reference: patent US9826759B2, “Avenanthramide-enriched oat product” (THE QUAKER OATS COMPANY, priority 2014, dated 2017)

Experiments:
[1] = Oxygen Radical Absorbance Capacity (ORAC) assay, antioxidant activity; assay type: biochemical; conditions: individual avenanthramides
Method: To test the effect of varying avenanthramide ratios on antioxidant activity and inflammation in vitro, the inventors created an avenanthramide ingredient from pure avenanthramides which had similar ratios of avenanthramides 2c:2p:2f as was present in each of the three different oat fractions: hulls, flour, and trichomes. Thereafter, antioxidant activity was measured using the ORAC assay and anti-inflammatory effect was measured using an NF-κB inhibitory assay.
The first avenanthramide ingredient was created from 2c:2p:2f having a ratio of about 1:1:1, which corresponded to the concentration present in oat hulls. The second avenanthramide ingredient had avenanthramides 2c:2p:2f having a ratio of about 1:1:2, which corresponded to the concentration present in oat flour. Finally, the last avenanthramide ingredient tested had 2c:2p:2f in a ratio of about 1:2:2, which corresponded to the concentration present in oat trichomes. An ORAC assay was used to measure the antioxidant activity of each of these avenanthramide ingredients and the results are presented in Table 1.

[2] = Peterson et al., 2001; cited from earlier work

Row | Structure (SMILES) | ORAC [1] | antioxidant activity in vitro [2]
1 | O=C(/C=C/c1ccc(O)c(O)c1)Nc1ccc(O)cc1C(=O)O [Avenanthramide 2c, avenanthramide 2c] | 33741.00 A* TE/g | highest antioxidant activity
2 | COc1cc(/C=C/C(=O)Nc2ccc(O)cc2C(=O)O)ccc1O [Avenanthramide 2f, avenanthramide 2f] | 21812.67 B TE/g | 
3 | O=C(/C=C/c1ccc(O)cc1)Nc1ccc(O)cc1C(=O)O [Avenanthramide 2p, avenanthramide 2p] | 18504.33 B TE/g | 
